Experimental data from patent US20240300958A1, “COMPOUNDS AND THE USES AND PHARMACEUTICAL COMPOSITIONS THEREOF” (BEIJING YOUZHUJU NETWORK TECHNOLOGY CO. LTD., priority 2023, published 2024).
Read-outs that look alike come from different tables or passages of the source.

Tests used:
CHK1 = CHK1 (Homo sapiens (Human), UniProt O14757); test: Kinase inhibition profile (HTRF / ADP Glo kinase assay); format: biochemical
Description: (§1) HTRF kinase assay: 2×ATP and substrate solution as well as 2× kinase and metal solution were prepared with assay buffer. 25 nL of compound was transferred to 384-well assay plate by Echo 655. After centrifugation, 2.5 μL of 2× kinase/metal ion solution was added to the 384-well assay plate followed by incubation at 25° C. for 10 min. 2.5 μL of 2× substrate and ATP solution was added to the wells followed by incubation at 25° C. for 60 min. 2× XL665 and antibody solution was prepared with assay buffer. 5 μL of kinase detection reagent was added to the wells followed by incubation at 25° C. for 60 min. Fluorescence signals at 620 nm (Cryptate) and 665 nm (XL665) were read with a microtiter plate reader. ADP Glo kinase assay: 2×ATP and substrate solution as well as 2× kinase and metal solution were prepared with assay buffer. 20 nL of compound was transferred to 384-well assay plate by Echo 655. 2 μL of 2× kinase/metal ion solution was added followed by incubation at 25° C. for 10 min in the 384-well assay plate. 2 μL of 2× substrate and ATP solution was added to the wells followed by incubation at 25° C. for 60 min. 4 μL of ADP Glo reagent was added to the wells followed by incubation at 25° C. for 40 min. 8 μL of kinase test reagent was added to the wells followed by incubation at 25° C. for 40 min. The luminescence signals were recorded on a microtiter plate reader. Data analysis: the reaction control (0.5% DMSO) reading was set to 0% inhibition, and the background (10 μM positive control) reading was set to 100% inhibition, then the percent inhibition for each test solution was calculated and the results are shown in Table 2 and FIG. 3.

CK2α1/β = CK2α1/β (Homo sapiens (Human), UniProt P68400); test: as above; format: biochemical
CK2α1/β, sequence (P68400 whole entry): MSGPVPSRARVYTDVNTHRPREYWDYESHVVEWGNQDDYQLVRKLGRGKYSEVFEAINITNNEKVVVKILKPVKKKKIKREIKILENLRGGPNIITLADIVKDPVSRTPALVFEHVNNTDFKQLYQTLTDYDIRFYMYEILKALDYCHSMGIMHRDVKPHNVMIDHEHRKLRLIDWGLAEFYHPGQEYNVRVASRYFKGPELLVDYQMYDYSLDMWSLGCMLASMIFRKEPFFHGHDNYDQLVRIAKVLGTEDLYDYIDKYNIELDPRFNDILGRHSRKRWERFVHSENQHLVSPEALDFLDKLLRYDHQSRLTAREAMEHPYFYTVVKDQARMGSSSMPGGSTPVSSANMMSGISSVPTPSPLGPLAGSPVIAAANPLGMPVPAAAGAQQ
CK2α1/β, sequence (P67870 whole entry partner): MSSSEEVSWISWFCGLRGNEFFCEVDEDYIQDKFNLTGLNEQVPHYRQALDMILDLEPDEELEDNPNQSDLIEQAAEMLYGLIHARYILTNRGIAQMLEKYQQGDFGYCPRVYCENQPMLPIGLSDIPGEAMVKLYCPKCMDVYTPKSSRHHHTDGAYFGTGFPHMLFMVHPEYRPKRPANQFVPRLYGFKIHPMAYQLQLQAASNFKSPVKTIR
Description: as §1

CLK1 = CLK1 (Homo sapiens (Human), UniProt P49759); test: as above; format: biochemical
Description: as §1

DCAMKL2 = DCAMKL2 (Homo sapiens (Human), UniProt Q8N568); test: as above; format: biochemical
DCAMKL2, sequence (Q8N568 whole entry, species assumed): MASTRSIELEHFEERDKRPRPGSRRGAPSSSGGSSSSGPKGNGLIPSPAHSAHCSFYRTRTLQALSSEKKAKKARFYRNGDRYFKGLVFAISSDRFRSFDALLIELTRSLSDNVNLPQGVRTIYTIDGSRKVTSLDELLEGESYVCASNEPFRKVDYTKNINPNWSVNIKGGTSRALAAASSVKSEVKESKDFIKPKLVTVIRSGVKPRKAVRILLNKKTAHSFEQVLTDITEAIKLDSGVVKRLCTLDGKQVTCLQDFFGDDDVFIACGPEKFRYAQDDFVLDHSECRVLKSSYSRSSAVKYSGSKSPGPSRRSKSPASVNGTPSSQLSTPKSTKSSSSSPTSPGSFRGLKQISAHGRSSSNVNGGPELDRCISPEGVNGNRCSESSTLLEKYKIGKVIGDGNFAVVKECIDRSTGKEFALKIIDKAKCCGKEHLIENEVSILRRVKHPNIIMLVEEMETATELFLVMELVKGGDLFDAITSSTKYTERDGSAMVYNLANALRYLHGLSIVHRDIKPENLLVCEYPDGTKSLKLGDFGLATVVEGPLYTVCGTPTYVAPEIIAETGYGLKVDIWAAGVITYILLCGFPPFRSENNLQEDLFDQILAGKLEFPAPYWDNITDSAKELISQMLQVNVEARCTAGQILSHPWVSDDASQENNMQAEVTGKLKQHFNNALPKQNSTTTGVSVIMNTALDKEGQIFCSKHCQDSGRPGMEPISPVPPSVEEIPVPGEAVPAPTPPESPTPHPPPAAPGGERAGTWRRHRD
Description: as §1

JAK3 = JAK3 (Homo sapiens (Human), UniProt P52333); test: as above; format: biochemical
JAK3, sequence (P52333 whole entry, species assumed): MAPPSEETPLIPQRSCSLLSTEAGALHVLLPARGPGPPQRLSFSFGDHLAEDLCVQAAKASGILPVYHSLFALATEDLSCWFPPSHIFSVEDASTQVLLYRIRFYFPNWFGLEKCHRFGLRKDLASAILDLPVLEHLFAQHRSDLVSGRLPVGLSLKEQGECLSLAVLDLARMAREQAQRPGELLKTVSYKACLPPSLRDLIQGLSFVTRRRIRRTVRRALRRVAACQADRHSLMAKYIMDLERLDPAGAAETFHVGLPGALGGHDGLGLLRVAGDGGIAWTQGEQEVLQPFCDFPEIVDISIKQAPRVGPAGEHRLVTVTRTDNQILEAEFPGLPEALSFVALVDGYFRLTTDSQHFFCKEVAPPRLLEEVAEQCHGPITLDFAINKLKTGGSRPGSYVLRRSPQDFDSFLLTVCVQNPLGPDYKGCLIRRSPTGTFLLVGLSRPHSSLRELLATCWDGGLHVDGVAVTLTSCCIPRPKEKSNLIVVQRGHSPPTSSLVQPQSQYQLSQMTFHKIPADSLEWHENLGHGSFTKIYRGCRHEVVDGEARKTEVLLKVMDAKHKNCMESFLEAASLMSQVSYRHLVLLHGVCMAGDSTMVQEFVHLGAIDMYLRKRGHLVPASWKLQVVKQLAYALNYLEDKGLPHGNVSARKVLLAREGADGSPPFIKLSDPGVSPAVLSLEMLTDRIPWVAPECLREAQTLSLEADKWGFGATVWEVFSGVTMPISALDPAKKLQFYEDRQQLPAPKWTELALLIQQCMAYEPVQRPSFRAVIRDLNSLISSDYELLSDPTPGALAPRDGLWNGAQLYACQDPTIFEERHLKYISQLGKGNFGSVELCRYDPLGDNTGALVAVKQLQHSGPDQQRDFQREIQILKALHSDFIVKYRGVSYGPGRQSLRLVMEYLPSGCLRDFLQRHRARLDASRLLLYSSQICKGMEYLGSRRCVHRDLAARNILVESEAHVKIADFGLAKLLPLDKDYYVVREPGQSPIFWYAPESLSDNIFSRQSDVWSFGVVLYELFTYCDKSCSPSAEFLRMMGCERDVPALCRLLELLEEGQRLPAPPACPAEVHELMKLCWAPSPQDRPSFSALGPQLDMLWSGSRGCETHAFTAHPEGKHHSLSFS
Description: as §1

KDR = KDR (Homo sapiens (Human), UniProt P35968); test: as above; format: biochemical
KDR, sequence (P35968 20-1356, species assumed): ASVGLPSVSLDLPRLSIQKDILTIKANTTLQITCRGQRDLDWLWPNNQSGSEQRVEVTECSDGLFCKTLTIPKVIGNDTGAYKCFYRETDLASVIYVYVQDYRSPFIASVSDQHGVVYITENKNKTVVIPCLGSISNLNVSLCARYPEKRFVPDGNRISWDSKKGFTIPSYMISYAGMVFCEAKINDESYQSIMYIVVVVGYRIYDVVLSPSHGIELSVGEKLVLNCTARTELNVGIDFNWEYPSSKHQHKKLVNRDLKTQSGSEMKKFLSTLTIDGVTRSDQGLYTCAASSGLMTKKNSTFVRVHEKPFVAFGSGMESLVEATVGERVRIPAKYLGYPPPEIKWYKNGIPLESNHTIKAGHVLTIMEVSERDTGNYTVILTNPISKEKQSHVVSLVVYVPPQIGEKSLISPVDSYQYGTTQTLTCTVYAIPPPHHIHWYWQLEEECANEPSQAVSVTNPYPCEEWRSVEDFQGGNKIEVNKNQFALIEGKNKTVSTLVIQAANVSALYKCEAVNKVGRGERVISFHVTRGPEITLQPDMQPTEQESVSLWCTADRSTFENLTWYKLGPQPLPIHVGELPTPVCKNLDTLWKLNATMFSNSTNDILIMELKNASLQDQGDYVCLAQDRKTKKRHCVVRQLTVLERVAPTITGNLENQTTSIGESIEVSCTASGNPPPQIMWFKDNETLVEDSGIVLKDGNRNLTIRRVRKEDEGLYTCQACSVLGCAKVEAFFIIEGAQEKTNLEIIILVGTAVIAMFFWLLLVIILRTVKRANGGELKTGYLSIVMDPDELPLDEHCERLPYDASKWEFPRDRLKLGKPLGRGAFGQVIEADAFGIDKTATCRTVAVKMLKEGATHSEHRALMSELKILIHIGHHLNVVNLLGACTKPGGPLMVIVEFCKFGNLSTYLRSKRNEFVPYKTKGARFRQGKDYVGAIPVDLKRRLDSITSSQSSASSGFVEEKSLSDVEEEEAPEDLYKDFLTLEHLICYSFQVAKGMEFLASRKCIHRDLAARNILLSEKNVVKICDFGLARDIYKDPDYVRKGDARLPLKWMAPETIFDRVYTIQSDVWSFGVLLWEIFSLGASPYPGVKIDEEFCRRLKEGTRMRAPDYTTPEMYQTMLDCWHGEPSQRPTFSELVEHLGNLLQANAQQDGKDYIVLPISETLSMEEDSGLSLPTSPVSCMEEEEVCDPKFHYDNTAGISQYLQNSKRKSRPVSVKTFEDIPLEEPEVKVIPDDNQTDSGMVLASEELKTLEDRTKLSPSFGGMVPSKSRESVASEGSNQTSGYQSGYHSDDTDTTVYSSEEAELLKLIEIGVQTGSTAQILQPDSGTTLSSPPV
Description: as §1

LCK = LCK (Homo sapiens (Human), UniProt P06239); test: as above; format: biochemical
Description: as §1

MAP2K1 = MAP2K1 (Homo sapiens (Human), UniProt Q02750); test: as above; format: biochemical
MAP2K1, sequence (Q02750 whole entry, species assumed): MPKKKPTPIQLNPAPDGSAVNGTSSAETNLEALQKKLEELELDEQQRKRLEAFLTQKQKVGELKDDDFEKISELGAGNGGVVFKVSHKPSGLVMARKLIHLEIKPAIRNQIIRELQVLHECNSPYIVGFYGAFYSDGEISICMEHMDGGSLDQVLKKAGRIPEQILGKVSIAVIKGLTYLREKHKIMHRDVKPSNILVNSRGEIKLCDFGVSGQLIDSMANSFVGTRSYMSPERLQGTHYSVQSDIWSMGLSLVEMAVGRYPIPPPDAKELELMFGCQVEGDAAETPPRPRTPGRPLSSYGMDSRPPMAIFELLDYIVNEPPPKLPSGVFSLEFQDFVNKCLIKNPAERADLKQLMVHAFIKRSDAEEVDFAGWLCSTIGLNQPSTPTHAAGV
Description: as §1

NEK1 = NEK1 (Homo sapiens (Human), UniProt Q96PY6); test: as above; format: biochemical
Description: as §1

PKACα = PKACα (Homo sapiens (Human), UniProt P17612); test: as above; format: biochemical
Description: as §1

PKD2 = PKD2 (Homo sapiens (Human), UniProt Q9BZL6); test: as above; format: biochemical
Description: as §1

PLK1 = PLK1 (Homo sapiens (Human), UniProt P53350); test: as above; format: biochemical
Description: as §1

RSK1 = RSK1 (Homo sapiens (Human), UniProt Q15418); test: as above; format: biochemical
Description: as §1

TRKB = TRKB (Homo sapiens (Human), UniProt Q16620); test: as above; format: biochemical
TRKB, sequence (Q16620 32-822, species assumed): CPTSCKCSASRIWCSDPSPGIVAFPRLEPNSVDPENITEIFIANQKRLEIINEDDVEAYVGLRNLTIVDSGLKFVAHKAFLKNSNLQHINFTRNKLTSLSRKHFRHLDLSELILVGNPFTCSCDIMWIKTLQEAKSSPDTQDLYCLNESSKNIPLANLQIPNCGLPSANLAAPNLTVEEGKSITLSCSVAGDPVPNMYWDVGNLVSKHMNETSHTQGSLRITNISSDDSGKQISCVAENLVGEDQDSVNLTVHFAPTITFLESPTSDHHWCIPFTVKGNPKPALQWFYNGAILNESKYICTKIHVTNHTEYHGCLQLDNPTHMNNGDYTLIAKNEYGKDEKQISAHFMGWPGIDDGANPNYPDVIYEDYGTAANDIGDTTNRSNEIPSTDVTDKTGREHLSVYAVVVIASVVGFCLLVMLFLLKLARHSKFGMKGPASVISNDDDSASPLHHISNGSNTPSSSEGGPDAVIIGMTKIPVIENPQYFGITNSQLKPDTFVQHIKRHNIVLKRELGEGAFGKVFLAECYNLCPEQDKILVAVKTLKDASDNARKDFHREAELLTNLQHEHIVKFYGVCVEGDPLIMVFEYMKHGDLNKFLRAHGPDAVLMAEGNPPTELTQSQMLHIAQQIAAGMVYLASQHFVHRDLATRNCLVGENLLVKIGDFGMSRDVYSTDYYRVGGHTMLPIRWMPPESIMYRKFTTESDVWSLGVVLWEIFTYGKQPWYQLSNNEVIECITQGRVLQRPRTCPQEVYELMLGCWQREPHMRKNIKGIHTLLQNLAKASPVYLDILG
Description: as §1

[1] = tested on: α-smooth muscle actin (α-SMA) expression; test: Inhibition of DDR1-mediated lung fibrosis (α-SMA expression) in hTGFβ1-stimulated MRC-5 cells (western blot); format: cell-based, Human; settings: for Ratio of α-SMA to GAPDH / α-SMA signal: hTGFβ1 2.5 ng/ml
Description: Human embryonic lung fibroblast MRC-5 cells were inoculated in a 6-well plate and incubated overnight at 37° C. and 5% CO2. 2 μL of compound C1 (gradient concentration in DMSO solution) was added to a cell plate with prepared cells, and was incubated overnight at 37° C. and 5% CO2. hTGFβ1 (which can stimulate DDR1-mediated lung fibrosis manifested by up-regulation of α-smooth muscle actin (α-SMA) expression) was added to the cell plate and incubated at 37° C. and 5% CO2 for 2 hours. Harvest of cell lysates: culture medium was aspirated as much as possible at the end of the culture until the wells were almost dry. 200 μL of ice-cold lysis buffer was added. Lysate was collected into a 1.5 mL eppendorf tube through scraping. Brief vortex was followed by spinning at 12000 rpm for 15 minutes in a refrigerated centrifuge. 5× protein electrophoresis loading buffer was added and then the sample was boiled. The sample supernatant was added to a SDS-PAGE gel, followed by electrophoresis, electrotransfer, blocking, primary antibody (anti-α-SMA antibody and anti-GAPDH antibody) incubation, washing, secondary antibody incubation, washing, and fluorescence development.

[2] = 1 uM Compound C1, read-out: % Inhibition (First measurement)
[3] = 1 uM Compound C1, read-out: % Inhibition (Second measurement)
[4] = 1 uM Compound C1, read-out: Average inhibition (%)

In the case of `Cc1ccc(C(=O)Nc2ccccn2)cc1C#Cc1cnc2cc(C3=CCCCC3)cnn12` [Compound C1, 3-{2-[7-(cyclohex-1-en-1-yl)imidazo[1,2-b]pyridazin-3-yl]ethynyl}-4-methyl-N-(pyridin-2-yl)benzamide], the inhibition at 1 µM (CHK1; [2]) is reported as -10.6%, the inhibition at 1 µM (CHK1; [3]) is reported as -13.6% and the inhibition at 1 µM (CHK1; [4]) is reported as -12.1%. For the same compound, the inhibition at 1 µM (CK2α1/β; [2]) was -5.19%, the inhibition at 1 µM (CK2α1/β; [3]) was 5.01% and the inhibition at 1 µM (CK2α1/β; [4]) was -0.09%. It also gave an inhibition at 1 µM (CLK1; [2]) of 2.98%, an inhibition at 1 µM (CLK1; [3]) of 12.3% and an inhibition at 1 µM (CLK1; [4]) of 7.67%. For the same compound, the inhibition at 1 µM (DCAMKL2; [2]) was -8.91%, the inhibition at 1 µM (DCAMKL2; [3]) was -8.39% and the inhibition at 1 µM (DCAMKL2; [4]) was -8.65%. It also gave an inhibition at 1 µM (JAK3; [2]) of -1.28%, an inhibition at 1 µM (JAK3; [3]) of 2.46% and an inhibition at 1 µM (JAK3; [4]) of 0.59%. For the same compound, the inhibition at 1 µM (KDR; [2]) was 2.42%, the inhibition at 1 µM (KDR; [3]) was 1.61% and the inhibition at 1 µM (KDR; [4]) was 2.01%. For the same compound, the inhibition at 1 µM (LCK; [2]) was 7.39%, the inhibition at 1 µM (LCK; [3]) was -6.87% and the inhibition at 1 µM (LCK; [4]) was 0.26%. The inhibition at 1 µM (MAP2K1; [2]) was -5.72%, the inhibition at 1 µM (MAP2K1; [3]) was -3.53% and the inhibition at 1 µM (MAP2K1; [4]) was -4.62%. The inhibition at 1 µM (NEK1; [2]) was 14.6%, the inhibition at 1 µM (NEK1; [3]) was 8.97% and the inhibition at 1 µM (NEK1; [4]) was 11.8%. It also gave an inhibition at 1 µM (PKACα; [2]) of -4.44%, an inhibition at 1 µM (PKACα; [3]) of -1.87% and an inhibition at 1 µM (PKACα; [4]) of -3.15%. It also gave an inhibition at 1 µM (PKD2; [2]) of -7.86%, an inhibition at 1 µM (PKD2; [3]) of -6.58% and an inhibition at 1 µM (PKD2; [4]) of -7.22%. It also gave an inhibition at 1 µM (PLK1; [2]) of 24.1%, an inhibition at 1 µM (PLK1; [3]) of 20.6% and an inhibition at 1 µM (PLK1; [4]) of 22.4%. The inhibition at 1 µM (RSK1; [2]) was 0.73%, the inhibition at 1 µM (RSK1; [3]) was -7.9% and the inhibition at 1 µM (RSK1; [4]) was -3.59%. It also gave an inhibition at 1 µM (TRKB; [2]) of 20.8%, an inhibition at 1 µM (TRKB; [3]) of 40.4% and an inhibition at 1 µM (TRKB; [4]) of 30.6%. The “Inhibition of DDR1-mediated lung fibrosis at the cellular level (in words)” value [1] was “can inhibit DDR1-mediated lung fibrosis at the cellular level”, the inhibition at 0.00244 µM ([1]; Homo sapiens, MRC5, hTGFβ1 2.5 ng/ml, compound C1 2.44 nM) was 103% and the inhibition at 0.00977 µM ([1]; Homo sapiens, MRC5, hTGFβ1 2.5 ng/ml, compound C1 9.77 nM) was 103%. It also gave an inhibition at 0.03906 µM ([1]; Homo sapiens, MRC5, hTGFβ1 2.5 ng/ml, compound C1 39.06 nM) of 103%, an inhibition at 0.15625 µM ([1]; Homo sapiens, MRC5, hTGFβ1 2.5 ng/ml, compound C1 156.25 nM) of 109% and an inhibition at 0.625 µM ([1]; Homo sapiens, MRC5, hTGFβ1 2.5 ng/ml, compound C1 625.00 nM) of 48.2%. For the same compound, the inhibition at 2.5 µM ([1]; Homo sapiens, MRC5, hTGFβ1 2.5 ng/ml, compound C1 2500.00 nM) was 11.7%, the “Ratio of α-SMA to GAPDH” value ([1]; compound C1 2.44 nM) was 1.1612 and the α-SMA signal ([1]; compound C1 2.44 nM) was 1390356. The “Ratio of α-SMA to GAPDH” value ([1]; compound C1 9.77 nM) was 1.1646, the α-SMA signal ([1]; compound C1 9.77 nM) was 1386165 and the “Ratio of α-SMA to GAPDH” value ([1]; compound C1 39.06 nM) was 1.1681. The α-SMA signal ([1]; compound C1 39.06 nM) was 1304919, the “Ratio of α-SMA to GAPDH” value ([1]; compound C1 156.25 nM) was 1.2342 and the α-SMA signal ([1]; compound C1 156.25 nM) was 1353660. For the same compound, the “Ratio of α-SMA to GAPDH” value ([1]; compound C1 625.00 nM) was 0.5459, the α-SMA signal ([1]; compound C1 625.00 nM) was 629772 and the “Ratio of α-SMA to GAPDH” value ([1]; compound C1 2500.00 nM) was 0.1330. The α-SMA signal ([1]; compound C1 2500.00 nM) was 4686.
